Measurements: US20230002324A1, “NAPHTHOQUINONE DERIVATIVES FOR TREATMENT OF OXIDATIVE STRESS DISORDERS” (PTC THERAPEUTICS, INC., priority 2019, published 2023)
Where two headings read alike, the source gives them in different places.

Assays:
CYP3A4 [1] = molecular target: T1, CYP3A4 (Homo sapiens, UniProt P08684); assay: CYP450 Inhibition Assay 1 (pooled human liver microsomes, midazolam); assay type: in vitro ADME; conditions: for IC50: HLM 0.05 mg/mL, midazolam 5 μM, 5 min; for CYP3A4 inhibition, in words: comment on Table 4
T1 construct: from tissue; host or cells: pooled human liver microsomes
Protocol: The CYP450 inhibition assay provides in vitro assessment of the inhibitory potential of the test compounds against cytochrome P450 enzymes. Selective substrates were incubated with pooled human liver microsomes (HLM) as single substrates. All assays employed 100 mM potassium phosphate buffer at pH 7.4.
The assays were performed in a 96-well PCR plate in a final volume of 140 μL at 37° C. Test compounds were evaluated at seven concentrations to obtain IC50 values, with a final concentration of 0.1% DMSO in the incubation (total organic solvent at 1% in the incubation). Reactions were initiated by the addition of NADPH. After the enzyme-specific incubation time had elapsed, an aliquot from that enzyme reaction was quenched in Acetonitrile with 0.2% Formic Acid. Supernatant from the quenched reactions was diluted with an equal volume of water, prior to analysis by LC-MS/MS.
All samples were analyzed on LC-MS/MS using an AB Sciex 6500+ instrument equipped with electrospray ionization source, coupled to a Shimadzu Nexera X2 system. Samples were separated using a Waters UPLC HSS T3, 1.8 μm column, 1×50 mm (catalog #186003535) at a flow rate of 200 μL/min. Injection volume was 2 μL.

[2] = test system: Q7 cells (ST HDH Q7/7; immortalized mouse striatal cells); assay: Q7 Cystine Deprivation cell survival (rescue) assay; assay type: cell-based; conditions: 18 h, read-out: Q7 Cystine Deprivation Survival EC50
Summary of the method: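 Cells were seeded at 3,000/well and allowed to attach for 5 h at 33 °C. Wells were then washed twice with PBS and switched to cystine-free DMEM containing FBS, 4 mM L-glutamine, 1 mM pyruvate and 30 mg/L methionine to induce ferroptotic death. Compounds were scored for survival rescue.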

[3] = test system: Q7 cells (ST HDH Q7/7; immortalized mouse striatal cells); assay: Q7 RSL3 challenge cell survival (rescue) assay; assay type: cell-based; conditions: 18 h, read-out: Q7 RSL3 Survival EC50
Summary of the method: (§1)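 Q7 (33° C.) or NHF (37° C.) cells, 3,000/well, attached 5 h, then test compounds at varying final concentrations followed within 15 min by RSL3 (2 micromolar final); 0.3% DMSO. Assay medium identical to growth medium.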

[4] = test system: normal human fibroblasts (NHF, GM21811); assay: NHF GM21811 RSL3 challenge cell survival (rescue) assay; assay type: cell-based; conditions: Fibroblast, 48 h, read-out: NHF GM21811 RSL3 Survival EC50
Summary of the method: as §1

CYP3A4 [5] = molecular target: T1, CYP3A4; assay: CYP450 Inhibition Assay 2 (pooled human liver microsomes, 5 concentrations); assay type: in vitro ADME; conditions: Table 3; HLM 0.05 mg protein/mL, 10 min reaction
Protocol: In an alternative experimental design, test compounds were evaluated at 5 concentrations in a 96 well assay plate. Initial combination with pooled human liver microsomes (0.05 mg protein/mL) was followed by a 5 minute incubation. […] The assay plate was incubated for an additional 30 minutes before the reaction was initiated with the addition of NADPH. After 10 minutes of reaction time, the reaction was quenched and samples were analyzed in a similar manner as described above.

[6] = Q7 cells, cystine-free medium, Cell Titer Glo, 50% relative viability vs Vitamin K2 (1 micromolar)
[7] = Q7 cells, RSL3 2 micromolar, Cell Titer Glo
[8] = NHF cells, RSL3 2 micromolar, Cell Titer Glo

T1 sequence (P08684 whole entry): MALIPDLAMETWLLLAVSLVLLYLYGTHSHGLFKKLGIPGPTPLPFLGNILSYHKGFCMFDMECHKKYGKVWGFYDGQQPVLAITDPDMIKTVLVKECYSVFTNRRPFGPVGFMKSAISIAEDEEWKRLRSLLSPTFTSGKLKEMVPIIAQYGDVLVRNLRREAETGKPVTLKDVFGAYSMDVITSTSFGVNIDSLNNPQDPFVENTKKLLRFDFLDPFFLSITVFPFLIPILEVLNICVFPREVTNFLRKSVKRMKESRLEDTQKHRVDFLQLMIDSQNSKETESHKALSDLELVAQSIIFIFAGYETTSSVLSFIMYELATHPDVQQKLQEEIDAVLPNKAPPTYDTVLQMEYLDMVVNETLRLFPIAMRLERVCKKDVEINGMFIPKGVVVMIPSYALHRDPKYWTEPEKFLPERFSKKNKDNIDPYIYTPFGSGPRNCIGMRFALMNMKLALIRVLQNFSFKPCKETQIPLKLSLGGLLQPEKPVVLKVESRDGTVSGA

| IC50 (CYP3A4 [1]; Table 3) | Compound | EC50 [3, 7] | EC50 [4, 8] | further results |
| --- | --- | --- | --- | --- |
| – | CC1=C(Cc2cccnc2)C(=O)c2ccccc2C1=O [Comparison Compound 1, reference compound] | – | – | IC50 (CYP3A4 [1]; Table 4 comparison): 0.421 µM; CYP3A4 inhibition, in words (CYP3A4 [1]): very potent inhibitor of CYP3A4 |
| – | CC1=C(Cc2ccncc2)C(=O)c2ccccc2C1=O [Comparison Compound 2, reference compound] | – | – | IC50 (CYP3A4 [1]; Table 4 comparison): 1.07 µM; CYP3A4 inhibition, in words (CYP3A4 [1]): potent CYP3A4 inhibitor |
| 5.78 µM | CC1=C(Cc2ccc(C(F)(F)F)cn2)C(=O)c2ccccc2C1=O [Example 1, 2-methyl-3-((5-(trifluoromethyl)pyridin-2-yl)methyl)naphthalene-1,4-dione] | < 0.05 µM | < 0.05 µM | EC50 [2, 6]: < 0.05 µM; IC50 (CYP3A4 [5]): 35.7 µM |
| 22.8 µM | CC1=C(Cc2ccccn2)C(=O)c2ccccc2C1=O [Example 23, 2-methyl-3-(pyridin-2-ylmethyl)naphthalene-1,4-dione] | – | – | EC50 [2, 6]: < 0.05 µM; IC50 (CYP3A4 [5]): 12.7 µM |
| – | CCC1=C(Cc2ccc(C(F)(F)F)cn2)C(=O)c2ccccc2C1=O [Example 26, 2-ethyl-3-((5-(trifluoromethyl)pyridin-2-yl)methyl)naphthalene-1,4-dione] | < 0.05 µM | < 0.05 µM | EC50 [2, 6]: < 0.05 µM; IC50 (CYP3A4 [5]): 14.2 µM |
| – | CC(C)C1=C(Cc2ccc(C(F)(F)F)cn2)C(=O)c2ccccc2C1=O [Example 30, 2-isopropyl-3-((5-(trifluoromethyl)pyridin-2-yl)methyl)naphthalene-1,4-dione] | – | – | EC50 [2]: < 0.05 µM; EC50 [4]: < 0.05 µM; IC50 (CYP3A4 [5]): 10.3 µM |
| 1.49 µM | [2H]C([2H])([2H])C1=C(Cc2ccc(C(F)(F)F)cn2)C(=O)c2cc(F)cc(F)c2C1=O [Example 57, 5,7-difluoro-3-(methyl-d3)-2-((5-(trifluoromethyl)pyridin-2-yl)methyl)naphthalene-1,4-dione] | < 0.05 µM | – | – |
| 4.14 µM | CC1=C(Cc2ccc(C(F)(F)F)c(C#N)n2)C(=O)c2ccc(F)cc2C1=O [Example 70, 6-((6-fluoro-3-methyl-1,4-dioxo-1,4-dihydronaphthalen-2-yl)methyl)-3-(trifluoromethyl)picolinonitrile] | < 0.05 µM | < 0.05 µM | – |
| 2.4 µM | CC1=C(Cc2ccc(C(F)(F)F)c(C#N)n2)C(=O)c2c(F)ccc(F)c2C1=O [Example 79, 6-((5,8-difluoro-3-methyl-1,4-dioxo-1,4-dihydronaphthalen-2-yl)methyl)-3-(trifluoromethyl)picolinonitrile] | < 0.05 µM | < 0.05 µM | – |
| 11 µM | CCC1=C(Cc2ccc(C(F)(F)F)c(C#N)n2)C(=O)c2ccc(F)cc2C1=O [Example 81, 6-((3-ethyl-6-fluoro-1,4-dioxo-1,4-dihydronaphthalen-2-yl)methyl)-3-(trifluoromethyl)picolinonitrile] | < 0.05 µM | < 0.05 µM | – |
| 2.73 µM | CCC1=C(Cc2ccc(C(F)(F)F)c(C#N)n2)C(=O)c2c(F)ccc(F)c2C1=O [Example 83, 6-((3-ethyl-5,8-difluoro-1,4-dioxo-1,4-dihydronaphthalen-2-yl)methyl)-3-(trifluoromethyl)picolinonitrile] | < 0.05 µM | – | – |
| 1.56 µM | N#Cc1nc(CC2=C(C3CC3)C(=O)c3c(F)ccc(F)c3C2=O)ccc1C(F)(F)F [Example 84, 6-((3-cyclopropyl-5,8-difluoro-1,4-dioxo-1,4-dihydronaphthalen-2-yl)methyl)-3-(trifluoromethyl)picolinonitrile] | < 0.05 µM | < 0.05 µM | – |
| 6.66 µM | CCC1=C(Cc2ccc(C(F)(F)F)c(C#N)n2)C(=O)c2cc(F)cc(F)c2C1=O [Example 86, 6-((3-ethyl-5,7-difluoro-1,4-dioxo-1,4-dihydronaphthalen-2-yl)methyl)-3-(trifluoromethyl)picolinonitrile] | < 0.05 µM | < 0.05 µM | – |
| 1.3 µM | CC1=C(Cc2ccc(C(F)(F)F)cn2)C(=O)c2c(ccc(F)c2F)C1=O [Example 128, 5,6-difluoro-2-methyl-3-((5-(trifluoromethyl)pyridin-2-yl)methyl)naphthalene-1,4-dione] | < 0.05 µM | – | – |

| Compound | IC50 (CYP3A4 [1]; Table 3) | EC50 [3, 7] | EC50 [4, 8] | further results |
| --- | --- | --- | --- | --- |
| CCC1=C(Cc2ccc(C(F)(F)F)cn2)C(=O)c2c(F)ccc(F)c2C1=O [Example 55, 2-ethyl-5,8-difluoro-3-((5-(trifluoromethyl)pyridin-2-yl)methyl)naphthalene-1,4-dione] | 3.68 µM | – | – | EC50 [3]: < 0.05 µM; EC50 [4]: < 0.05 µM |
